Measurements published in US20260183432A1, “IMAGING AGENTS FOR DETECTING CD206+ MACROPHAGES” (THE GENERAL HOSPITAL CORPORATION, priority 2022, published 2026).
“Also recorded” adds a separate entry of the source. One block for each compound: values may come before it.

How the values were obtained:
[1] = PET imaging of [68]Ga-MannGaFish; settings: in vivo
[2] = biodistribution and retention by ICP-MS in mice with cutaneous wound; format: in vivo, mouse
Experimental: (§1) 6-10 weeks old of C57BL/6J mice were administered with MannGdFish intravenously 24 h after the wound injury. At 3 h and on day 7 after induction, mice were sacrificed and major organs including wound skins and the counter skins were harvested (n=3 for each time point). Blood samples were collected before and at different time points after the administration of MannGdFish (n=6) and centrifuged to obtain the plasma. The samples were weighed, treated with nitric acid, and subjected to inductively coupled plasma mass spectrometry (ICP-MS) to determine the amount of gadolinium as described in Example 6.

[3] = in vitro relaxivity (r1), Bruker Minispect; format: physicochemical
Experimental: Relaxation time (T1) of Mann2-DTPA-Gd/MannGdFish at concentrations of 0.1, 0.2, 0.3, 0.5, 0.6, 0.75, and 1 mM in PBS was measured on the Bruker Minispect (Bruker Analytics, MA) at 0.47 T (20 MHz) at 40° C. The slope value of the linear function of 1/T1 (s) to their corresponding concentrations is defined as the relaxivity (n=3 for each concentration).

[4] = blood half-life by ICP-MS; format: in vivo, mouse; settings: two-phase exponential model
Experimental: as §1

RAW 264.7 cells = experiment: cytotoxicity, MTT assay; format: cell-based; settings: n=3
Experimental: The cytotoxicity of MannGdFish was evaluated using RAW264.7 cells (Passage 8 from the cell core of the Center for Systems Biology at Massachusetts General Hospital, Boston) with an MTT assay as described by Wang et. al (J Med Chem 64, 5874-5885 (2021)) (n=3).

CD206+ macrophages = experiment: MR imaging in mouse model of cutaneous wound healing; format: in vivo; settings: for contrast-to-noise ratio (CNR) time course: wildtype mice, day 7 after wound induction
Experimental: Eight-to nine-week-old C57BL/6J female mice were used for MRI of wound healing and glioma (Jackson Laboratory, ME). The generation of wound healing and glioma is described in Examples 14 and 15, respectively. The mice with subcutaneous wounds were imaged on days 1, 4, and 7 longitudinally or on day 7. Mice with glioma were imaged on the third week. All the mice were imaged pre- and at 0, 15, 30, 45 and 60 min after 0.3 mmol/kg of Mann2-DTPA-Gd or MannGdFish was administered intravenously via a tail vein using serial T1 rapid acquisition with relaxation enhancement (RARE) sequence (TR: 935.77 ms, TE: 13.59 ms, averages: 12, rare factor: 4, 256×256×48 matrix size, 0.156×0.156×1 mm^3 voxel size) with chemical fat suppression using a Hermitian pulse shape with an 8.253 ms pulse and 701.19 Hz bandwidth 3.5 ppm down from the water peak and respiratory gating on a 4.7 T small animal MR scanner (Bruker, Cambridge, MA) with a 3 cm quadrature volume coil (Rapid MR International, Germany). Regions of interest (ROIs) were drawn and the contrast-to-noise ratios (CNRs, CNRpre-contrast subtracted) were calculated by a radiologist with over 20 years of experience blinded to the identity of the imaging agent used and the strain of the mice (n=3 per group).
Wound healing procedure. Seven-to ten-week-old C57BL/6J female mice (The Jackson Laboratories, ME) and mannose-receptor deficient mice were used in this study. A circular outline on the back of a mouse was made with a 4 mm biopsy punch (Kai Medical, Japan) under anesthesia using isoflurane. Then a full-thickness excisional wound was generated that extended through the subcutaneous tissue. A silicone splint was glued over the wound, anchored with 6-0 nylon sutures, and covered with a transparent occlusive dressing (OpSite). Xylazine/norepinephrine (100 μL) were intraperitoneally injected twice a day for two days and the mice were monitored daily.

CD206 = target: T1, CD206 (Homo sapiens, UniProt P22897); settings: read-out: binding affinity to CD206 (IC50); cited from earlier work
T1 sequence (P22897 19-1456): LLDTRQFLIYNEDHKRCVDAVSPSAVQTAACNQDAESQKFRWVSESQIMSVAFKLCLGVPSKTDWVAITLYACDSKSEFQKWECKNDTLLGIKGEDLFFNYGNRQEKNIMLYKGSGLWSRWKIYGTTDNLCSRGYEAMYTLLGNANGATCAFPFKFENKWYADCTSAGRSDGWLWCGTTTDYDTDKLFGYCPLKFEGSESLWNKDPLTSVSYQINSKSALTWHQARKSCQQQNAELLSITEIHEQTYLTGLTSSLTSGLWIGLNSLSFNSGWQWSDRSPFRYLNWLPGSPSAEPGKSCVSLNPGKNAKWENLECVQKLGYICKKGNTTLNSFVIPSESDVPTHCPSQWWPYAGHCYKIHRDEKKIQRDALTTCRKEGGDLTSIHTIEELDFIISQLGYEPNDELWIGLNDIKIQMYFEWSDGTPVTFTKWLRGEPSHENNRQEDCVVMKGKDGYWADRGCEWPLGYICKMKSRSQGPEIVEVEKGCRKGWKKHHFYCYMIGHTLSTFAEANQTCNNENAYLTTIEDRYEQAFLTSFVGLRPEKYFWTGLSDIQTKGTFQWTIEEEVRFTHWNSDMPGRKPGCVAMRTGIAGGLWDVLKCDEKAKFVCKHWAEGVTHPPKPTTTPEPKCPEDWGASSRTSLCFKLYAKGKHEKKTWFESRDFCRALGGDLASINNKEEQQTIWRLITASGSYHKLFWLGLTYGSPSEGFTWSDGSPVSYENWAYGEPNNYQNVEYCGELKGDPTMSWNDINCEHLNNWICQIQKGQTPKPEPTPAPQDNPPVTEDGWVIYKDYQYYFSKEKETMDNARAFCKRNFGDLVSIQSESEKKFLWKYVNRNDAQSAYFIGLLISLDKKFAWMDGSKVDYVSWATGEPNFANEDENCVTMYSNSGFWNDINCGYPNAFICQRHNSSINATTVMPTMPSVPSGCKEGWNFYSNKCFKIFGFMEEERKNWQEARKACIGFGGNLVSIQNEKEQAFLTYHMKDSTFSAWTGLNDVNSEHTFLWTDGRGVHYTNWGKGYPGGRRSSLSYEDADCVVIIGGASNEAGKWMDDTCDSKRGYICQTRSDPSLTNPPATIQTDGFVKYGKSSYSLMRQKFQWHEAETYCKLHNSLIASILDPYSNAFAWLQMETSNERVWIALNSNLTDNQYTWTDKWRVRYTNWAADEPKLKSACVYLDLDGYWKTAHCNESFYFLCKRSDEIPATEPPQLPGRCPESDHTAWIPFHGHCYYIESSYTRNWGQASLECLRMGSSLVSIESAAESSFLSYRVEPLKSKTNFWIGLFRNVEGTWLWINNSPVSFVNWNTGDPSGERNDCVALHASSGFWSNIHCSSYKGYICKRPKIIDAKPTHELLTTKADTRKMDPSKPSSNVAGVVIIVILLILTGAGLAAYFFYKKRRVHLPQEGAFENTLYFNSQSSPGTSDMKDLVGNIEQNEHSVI

[5] = tested on: M1 and M2 macrophages differentiated from Raw 264.7 cells; experiment: fluorescence imaging of M1- and M2-differentiated macrophages; format: cell-based; settings: incubated at 37° C.
Experimental: M1- and M2-differentiated macrophages were incubated with 1/1000 dilution of MR2-cy5 stock solution (10 mM in DMSO) for 1 h at 37° C. and counter-stained with DAPI (4′,6-diamidino-2-phenylindole, Invitrogen). The cells were washed with PBS and fluorescence imaging was captured with a digital microscope (Nikon Eclipse TE2000-U).
M1 and M2 polarized differentiation. Raw 264.7 cells (Passage 8 from the cell core of center for Systems Biology at Massachusetts General Hospital, Boston) in 10 mL petri dishes were cultured with Dulbecco's modified eagle medium with high glucose (DMEM, Thermo Fisher Scientific, NY, USA) containing 10% of fetal bovine serum (FBS, Sigma-Aldrich, MO, USA) and 0.5% streptomycin/penicillin (Cellgro) until reaching 80% of confluency. Then differentiating media containing IFN-gamma (100 ng/ml the above medium) for M1 polarization and IL-4 (100 ng/mL) for M2 polarization were added to the dishes, respectively. After 24 h, the M1 and M2 polarized macrophages were ready for the following experiments.

uptake in organs on PET imaging [1]: low uptakes in the lungs and heart
SMILES: O=C([O-])CN1CCN(CC(=O)[O-])CCN(C(CCC(=O)NC(COC2OC(CO)C(O)C(O)C2O)COC2OC(CO)C(O)C(O)C2O)C(=O)[O-])CCN(CC(=O)O)CC1.[68Ga+3] (stereo not shown) [[68]Ga-MannGaFish]

accumulation or retention of Gd in the body ([2]; 3 h and day 7, ICP-MS): < 0.5 nmol Gd per gram tissue | relaxivity (r1) [3]: 5.2 mmol⁻¹ s⁻¹ | blood half-life, fast phase [4]: 0.3 min | blood half-life, slow phase [4]: 6.1 min
SMILES: O=C([O-])CN1CCN(CC(=O)[O-])CCN(C(CCC(=O)NC(COC2OC(CO)C(O)C(O)C2O)COC2OC(CO)C(O)C(O)C2O)C(=O)[O-])CCN(CC(=O)O)CC1.[Gd+3] (stereo not shown) [MannGdFish]
gadolinium in wound versus normal skin ([2]; 3 h after administration, wound 24 h post-injury): low and not significantly different compared to that in the normal skin | major organs containing gadolinium ([2]; 3 h and day 7): liver and spleen being the major organs containing gadolinium | gadolinium in wound versus normal skin ([2]; day 7): higher in the wound than that in the normal skin | cytotoxicity: concentration up to which no cytotoxic effect was observed (RAW 264.7 cells): > 5 mM | MR signal compared to DOTA-Gd (CD206+ macrophages; 60 min, wound healing day 7): much higher in comparison with that of DOTA-Gd; also recorded: much higher compared to that of DOTA-Gd | contrast-to-noise ratio (CNR) time course (CD206+ macrophages): slow decrease of CNR | CNR compared to Mann2-DTPA-Gd (CD206+ macrophages; wildtype wound healing mice, day 7): slightly higher CNRs and similar dynamic profile as that of Mann2-DTPA-Gd; also recorded: slightly higher compared to that of Mann2-DTPA-Gd

SMILES: O=C([O-])CN1CCN(CC(=O)[O-])CCN(CC(=O)O)CCN(CC(=O)[O-])CC1.[Gd+3] [DOTA-Gd, reference compound]
contrast-to-noise ratio (CNR) time course (CD206+ macrophages): decreased significantly 15 min post-injection; also recorded: decreased rapidly after peaking at 15 min post-injection

SMILES: O=C[C@@H](O)[C@@H](O)[C@H](O)[C@H](O)CO [D-mannose]
IC50 (CD206): 5.5 mM

SMILES: CC[N+]1=C(/C=C/C=C/C=C2/N(CCCCCC(=O)NC3C(O)OC(CO)C(O)C3O)c3ccc(S(=O)(=O)O)cc3C2(C)C)C(C)(C)c2cc(S(=O)(=O)[O-])ccc21 (stereo not shown) [MR1-cy5]
fluorescence signal, M2 versus M1 macrophages (specificity) [5]: low specificity to M2 macrophages

SMILES: CC[N+]1=C(/C=C/C=C/C=C2/N(CCCCCC(=O)NC(COC3OC(CO)C(O)C(O)C3O)COC3OC(CO)C(O)C(O)C3O)c3ccc(S(=O)(=O)O)cc3C2(C)C)C(C)(C)c2cc(S(=O)(=O)[O-])ccc21 (stereo not shown) [MR2-cy5]
fluorescence signal, M2 versus M1 macrophages (specificity) [5]: much higher signal from M2 macrophages than that from M1 macrophages; also recorded: much higher signal in M2 macrophages compared to that in M1 macrophages
